Results taken from patent US5496947A, “Quinolone carboxylic acid derivatives” (Dong Wha Pharmaceutical Industrial Co., Ltd., priority 1994, dated 1996).
Read-outs that look alike come from different tables or passages of the source.

How the values were obtained:
[1] = test system: Proteus vulgaris ATCC 13315; experiment: MIC, 2-fold dilution method in micro-well plate, P. vulgaris; assay type: cell-based; details: P. vulgaris ATCC13315, 37° C., read-out: Minimum Inhibitory Concentration
Procedure, shortened: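 Two-fold broth dilution in micro-well plates; compounds tested as hydrochloride salts in water. Bacteria from overnight BHI broth culture at 37 °C inoculated to about (10^5–10^6)/2 cfu/ml final; MIC read after incubation at 37 °C.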

[2] = test system: Klebsiella pneumoniae ATCC 13883; experiment: MIC, 2-fold dilution method in micro-well plate, K. pneumoniae; assay type: cell-based; details: ATCC13883, read-out: Minimum Inhibitory Concentration
Procedure, shortened: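 Two-fold broth dilution in micro-wells of compound as hydrochloride salt in water. Overnight BHI culture at 37 °C inoculated to about (10^5–10^6)/2 cfu/ml final. MIC read after incubation at 37 °C.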

[3] = test system: Streptococcus pneumoniae ATCC 6303; experiment: MIC, 2-fold dilution method in micro-well plate, S. pneumoniae; assay type: cell-based; details: S. pneuinoniae ATCC6303, 37° C., read-out: Minimum Inhibitory Concentration
Procedure, shortened: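 MIC by 2-fold serial microdilution of compounds as hydrochloride salts in water, against a BHI-grown overnight culture. Final inoculum was about (10^5–10^6)/2 cfu/ml. Plates were incubated at 37° C before the minimum inhibitory concentration was read.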

[4] = test system: Shigella sonnei ATCC 25931; experiment: MIC, 2-fold dilution method in micro-well plate, S. sonnei; assay type: cell-based; details: S. sonnei ATCC25931, 37° C., read-out: Minimum Inhibitory Concentration
Procedure, shortened: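 Broth microdilution with 2-fold serial dilutions of compounds as hydrochloride salts in water. Overnight BHI culture of S. sonnei at 37° C added to give about (10^5-10^6)/2 cfu/ml per well. MIC read after incubation at 37° C.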

[5] = Pharmacokinetic properties in ICR mouse, oral and subcutaneous, Bio-Assay (Agar well method); assay type: in vivo; details: 40 mg/kg, average of four tests; for dose excreted: urine, read-out: Urine Recovery
Method: The pharmacokinetic properties are tested by orally administrating and subcutaneously injecting a test compound and a substance for control to a ICR Mouse with 22 g±10% weight, drawing blood after 10, 20, 30, 45, 60, 90, 120, 150, 180 and […] and analyzed by Bio-Assay (Agar well method).

LD50, oral, mice = details: mouse, in vivo
[6] = test system: Enterobacter aerogenes ATCC 13048; experiment: MIC, 2-fold dilution method in micro-well plate, E. aerogenes; assay type: cell-based; details: Klebsiella aerogenes; E. aerogenes ATCC13048, 37° C.; read-out: Minimum Inhibitory Concentration
Procedure, shortened: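 Two-fold broth microdilution of hydrochloride salts dissolved in sterile water (10 mg/ml stock). Inoculum from overnight BHI culture at 37° C, about (10^5–10^6)/2 cfu/ml final in well. MIC read after incubation at 37° C.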

[7] = test system: Salmonella typhimurium ATCC 14028; experiment: MIC, 2-fold dilution method in micro-well plate, S. typhimurium; assay type: cell-based; details: Salmonella enterica; S. typhisurium ATCC14028, 37° C.; read-out: Minimum Inhibitory Concentration
Procedure, shortened: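 Twofold broth microdilution with overnight BHI culture at 37 °C; inoculum about (10^5-10^6)/2 cfu/ml in wells. Compounds tested as hydrochloride salts from 10 mg/ml aqueous stock; MIC read after incubation at 37 °C.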

Enterobacter cloacae = experiment: MIC, 2-fold dilution method in micro-well plate, E. cloacae; assay type: cell-based; details: read-out: Minimum Inhibitory Concentration
[8] = test system: Citrobacter freundii ATCC 8090; experiment: MIC, 2-fold dilution method in micro-well plate, C. freundii; assay type: cell-based; details: ATCC8090, read-out: Minimum Inhibitory Concentration
Procedure, shortened: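 Broth 2-fold microdilution; compounds tested as hydrochloride salts in sterile water. Inoculum from overnight BHI broth culture at 37° C., final about (10^5-10^6)/2 cfu/ml per well; MIC read after incubation at 37° C.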

[9] = test system: Pseudomonas aeruginosa ATCC 27853; experiment: MIC, 2-fold dilution method in micro-well plate, P. aeruginosa; assay type: cell-based; details: P. aerugirnosa ATCC27853, 37° C., read-out: Minimum Inhibitory Concentration
Procedure, shortened: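 MIC was recorded after 37° C incubation of bacteria with serial two-fold dilutions of compound. Bacteria came from an overnight 37° C BHI culture; the final inoculum was about (10^5-10^6)/2 cfu/ml. Compounds were tested as hydrochloride salts diluted in sterile water from a 10 mg/ml stock.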

[10] = test system: Shigella flexneri ATCC 12022; experiment: MIC, 2-fold dilution method in micro-well plate, S. flexneri; assay type: cell-based; details: S. flexneri ATCC12022, 37° C., read-out: Minimum Inhibitory Concentration
Procedure, shortened: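 Two-fold broth dilution in microwell plates; compounds as hydrochloride salts in sterile water. Overnight BHI-broth culture at 37 °C used as inoculum, giving about (10^5–10^6)/2 cfu/ml per well. MIC read after cultivation at 37 °C.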

[11] = test system: Serratia marcescens ATCC 8100; experiment: MIC, 2-fold dilution method in micro-well plate, S. marcescens; assay type: cell-based; details: S. marcescens ATCC8100, 37° C., read-out: Minimum Inhibitory Concentration
Procedure, shortened: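 Broth microdilution (2-fold series) of hydrochloride salts in water; S. marcescens from overnight BHI culture at 37 °C inoculated to about (10^5-10^6)/2 cfu/ml. MIC read after cultivation at 37 °C.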

[12] = test system: Streptococcus pyrogens ATCC 19615; experiment: MIC, 2-fold dilution method in micro-well plate, S. pyrogens; assay type: cell-based; details: S. pyrogenes ATCC19615, 37° C., read-out: Minimum Inhibitory Concentration
Procedure, shortened: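 Inoculum from overnight 37° C brain-heart infusion culture gave roughly (10^5-10^6)/2 cfu/mL per well against two-fold serial dilutions of hydrochloride-salt compound in water. Lowest concentration inhibiting growth after 37° C incubation taken as MIC.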

[13] = test system: Streptococcus faecalis ATCC 19433; experiment: MIC, 2-fold dilution method in micro-well plate, S. faecalis ATCC 19433; assay type: cell-based; details: Enterococcus faecalis; S. faecalis ATCC19433, 37° C.; read-out: Minimum Inhibitory Concentration
Procedure, shortened: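 Broth microdilution (2-fold series) with test compounds as hydrochloride salts in sterile water; overnight BHI culture at 37 °C inoculated to about (10^5-10^6)/2 cfu/ml per well. MIC read after incubation at 37 °C.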

[14] = test system: Streptococcus faecalis ATCC 29212; experiment: MIC, 2-fold dilution method in micro-well plate, S. faecalis ATCC 29212; assay type: cell-based; details: Enterococcus faecalis; S. faecalis ATCC29212, 37° C.; read-out: Minimum Inhibitory Concentration
Procedure, shortened: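 Compounds were tested as hydrochloride salts by 2-fold serial dilution in water in micro-well plates. Final inoculum was about (10^5-10^6)/2 cfu/ml from overnight BHI broth culture. MIC was read after culture at 37° C.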

[15] = test system: Acinetobacter calcoaceticus; experiment: MIC, 2-fold dilution method in micro-well plate, A. calcoaceticus; assay type: cell-based; details: ATCC8090, read-out: Minimum Inhibitory Concentration
[16] = test system: Haemophilus influenza ATCC 35056; experiment: MIC, 2-fold dilution method in micro-well plate, H. influenzae; assay type: cell-based; details: H. influenzae ATCC35056, 37° C.; read-out: Minimum Inhibitory Concentration
Procedure, shortened: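 MIC by 2-fold broth microdilution; compounds as hydrochloride salts in sterile water (10 mg/ml stock). Overnight BHI culture inoculated at about (10^5-10^6)/2 cfu/ml final; MIC read after cultivation at 37° C.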

[17] = test system: Escherichia coli ATCC 25922; experiment: MIC, 2-fold dilution method in micro-well plate, E. coli; assay type: cell-based; details: ATCC25922, read-out: Minimum Inhibitory Concentration
Procedure, shortened: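 Broth two-fold microdilution of hydrochloride salts in water against E. coli ATCC 25922 grown overnight in BHI at 37° C. Final inoculum about (10^5 -10^6)/2 cfu/ml; after incubation at 37° C, MIC was recorded.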

CN1CCN(c2cc3c(cc2F)c(=O)c(C(=O)O)cn3-c2ccc(F)cn2)CC1.Cl [Example 18, 1-(5-fluoro-2-pyridyl)-6-fluoro-7-(4-methyl-1-piperazinyl)-1,4-dihydro-4-oxoquinoline-3-carboxylic acid hydrochloride]
MIC [1]: 0.313 µg/mL
MIC [2]: 0.625 µg/mL
MIC [3]: 5 µg/mL
MIC [4]: 0.625 µg/mL
AUC ([5]; blood, po, P.O): 42200 ng·h/mL
Cmax ([5]; blood, po, P.O): 9180 ng/mL
Tmax ([5]; blood, po, P.O): 0.94 h
bioavailability ([5]; blood, po, P.O): 68.6%
half-life ([5]; blood, po, P.O): 3.44 h
AUC ([5]; blood, sc, S.C): 63400 ng·h/mL
Cmax ([5]; blood, sc, S.C): 19600 ng/mL
Tmax ([5]; blood, sc, S.C): 1 h
half-life ([5]; blood, sc, S.C): 3.15 h
dose excreted ([5]; po, P.O): 28.1%
dose excreted ([5]; sc, S.C): 39.9%
LD50 (LD50, oral, mice): > 3000 mg/kg
MIC [6]: 0.25 µg/mL
MIC [7]: 1.25 µg/mL
MIC (Enterobacter cloacae): 0.625 µg/mL
MIC [8]: 0.625 µg/mL
MIC [9]: 1.25 µg/mL
MIC [10]: 0.625 µg/mL
MIC [11]: 1.25 µg/mL
MIC [12]: 5 µg/mL
MIC [13]: 5 µg/mL
MIC [14]: 2.5 µg/mL
MIC [15]: 0.625 µg/mL
MIC [16]: 0.625 µg/mL
MIC [17]: 0.625 µg/mL
